Assay results as given in patent US11234954B2, “Low-dose doxepin for treatment of sleep disorders in elderly patients” (Pernix Sleep, Inc., priority 2006, dated 2022).
Read-outs that look alike come from different tables or passages of the source.

Columns and labels:
[1] = test system: Adult Patients (Ages 18-64) with Primary Insomnia; test: PSG efficacy, four-period crossover dose-response study in adults 18-64 (Example 3); type: in vivo, human; settings: for LPS, Mean / SE, Mean / TST, Mean / WASO, Mean / WTAS, Mean: Per-Protocol N = 61; for WTDS, observed mean (±SD) (primary efficacy variable): WTDS typically expressed in minutes
From the text: (§1) The primary and secondary efficacy assessments were as described above in Example 1.

[2] = test system: primary elderly insomnia patients with sleep maintenance difficulties; test: Clinical Global Impressions (CGI), Phase III elderly study (Example 2); type: in vivo, human
Method: Subjective Variables: Subjective efficacy variables were subjective TST (sTST), subjective WASO (sWASO), LSO, subjective NAASO (sNAASO), and sleep quality. These variable were assessed using a questionnaire completed in the morning following each PSG recording night. Drowsiness, ability to function, and total nap time during the day were assessed using an evening questionnaire completed prior to PSG recording at Nights −6, −5, 1, 15, 29, 57, and 85. Other secondary subjective efficacy variables included the 2-item Clinical Global Impressions (CGI) scale for severity of illness and therapeutic effect completed by a clinician; the 5-item CGI scale pertaining to therapeutic effect completed by the subject; the Insomnia Severity Index (ISI) completed by the subject, and a subjective assessment of sTST, LSO, and sleep quality collected through the IVRS.
Clinical Global Impressions (CGI) ns (CGI) consist of two questions addressed to the clinician relating to the severity of illness and therapeutic effect of the study drug and five questions addressed to the patient relating to the therapeutic effect of the drug.

[3] = test system: patients aged 65 years or older with primary sleep maintenance insomnia; settings: Per-Protocol N = 71; for WTDS, Mean (primary efficacy variable): WTDS typically expressed in minutes
Method: As used herein, the term “polysomnography” (PSG) refers a diagnostic test during which a number of physiologic variables are measured and recorded during sleep. Physiologic sensor leads are placed on the patient in order to record brain electrical activity, eye and jaw muscle movement, leg muscle movement, airflow, respiratory effort (chest and abdominal excursion), EKG and oxygen saturation. Information is gathered from all leads and fed into a computer and outputted as a series of waveform tracings which enable the technician to visualize the various waveforms, assign a score for the test, and assist in the diagnostic process. The primary efficacy variable, wake time during sleep (WTDS) and various secondary efficacy variables are all based on the PSG and are defined as follows.
“Wake Time During Sleep” (WTDS), typically expressed in minutes, is the number of wake events (epochs) after the onset of persistent sleep and prior to final awakening, divided by two. Each epoch is defined as a 30-second duration on the PSG recording.
“Wake Time After Sleep” (WTAS), typically expressed in minutes, is the number of epochs after the final awakening until the end of PSG recording (i.e., a wake epoch immediately prior to the end of the recording), divided by two.
“Wake After Sleep Onset” (WASO) is the sum of WTDS and WTAS.
“Latency to Persistent Sleep” (LPS), typically expressed in minutes, is the number of epochs from the beginning of the PSG recording (lights-out) to the start of the first 20 consecutive non-wake epochs, divided by two.
“Total Sleep Time” (TST), typically expressed in minutes, is the number of non-wake epochs from the beginning of the PSG recording to the end of the recording, divided by two.
“Sleep Efficiency” (SE) is the TST divided by the time in bed (8 hours), multiplied by 100 and expressed as a percentage. This also can be divided into SE for each third-of-the-night of sleep, reflecting the SE for each 160 minute time interval across the night. Finally, SE can be measured for individual hours during the night or sleep period, for example the final hour of the sleep period.
“NAASO” refers to the number of awakenings after sleep onset.
A randomized, multi-center, double-blind, placebo-controlled, four-period crossover, dose-response study was designed to assess the effects of doxepin (1 mg, 3 mg and 6 mg) compared with placebo in patients aged 65 years or older with primary sleep maintenance insomnia. Patients received a single-blind placebo for two consecutive nights during the PSG screening period, and double-blind study drug for two consecutive nights during each of the four treatment periods. […] Patients were allowed to leave the sleep center during the day after each PSG assessment was complete. A 5- or 12-day study drug-free interval separated each PSG assessment visit. The duration of study participation per patient was approximately 7 to 11 weeks.
Patients who qualified for study entry, based on the screening PSG assessments, were randomized to a treatment sequence using a Latin square design. A final study visit was performed for patients either after completion of the four treatment periods or upon discontinuation from the study. Efficacy assessments were made at each visit and safety assessments were performed throughout the study.
The main inclusion criteria were male and/or female patients, aged 65 years or older, in good general health with at least a 3-month history of Diagnostic and Statistical Manual of Mental Disorders, fourth Edition (DSM-IV)-defined primary insomnia, reporting each of the following on four of seven nights prior to PSG screening: ≤6.5 hours of total sleep time (TST), ≥60 min of wakefulness after sleep onset (WASO) and ≥20 min of latency to sleep onset (LSO). Doxepin HCl 1 mg, 3 mg and 6 mg capsules, and placebo capsules, were provided as a single dose for oral administration.
The primary efficacy assessment was WTDS.

[4] = test system: Adult Patients (Ages 18-64) with Primary Insomnia; test: Subjective sleep parameters, adult crossover study (Example 3); type: in vivo, human; settings: Per-Protocol N = 61
From the text: as §1

In the case of `CN(C)CCC=C1c2ccccc2COc2ccccc21` (mixture of isomers) [Doxepin], the “LPS, Mean” value ([1]; 1 mg) is reported as 30.1 min, the “SE, Mean” value ([1]; 1 mg) is reported as 84.7% and the “TST, Mean” value ([1]; 1 mg) is reported as 406.5 min. The “WASO, Mean” value ([1]; 1 mg) was 47.3 min, the “WTAS, Mean” value ([1]; 1 mg) was 4.1 min and the “WTDS, observed mean (±SD) (primary efficacy variable)” value (from here on “WTDS, observed mean (±SD)”) ([1]; 1 mg) was 43.2 (28.2). The “LPS, Mean” value ([1]; 3 mg) was 30.8 min, the “SE, Mean” value ([1]; 3 mg) was 86.5% and the “TST, Mean” value ([1]; 3 mg) was 415.2 min. The “WASO, Mean” value ([1]; 3 mg) was 38.6 min, the “WTAS, Mean” value ([1]; 3 mg) was 5.2 min and the “WTDS, observed mean (±SD)” value ([1]; 3 mg) was 33.4 (21.87). For the same compound, the “LPS, Mean” value ([1]; 6 mg) was 27.9 min, the “SE, Mean” value ([1]; 6 mg) was 86.9% and the “TST, Mean” value ([1]; 6 mg) was 417.2 min. For the same compound, the “WASO, Mean” value ([1]; 6 mg) was 38.8 min, the “WTAS, Mean” value ([1]; 6 mg) was 2.5 min and the “WTDS, observed mean (±SD)” value ([1]; 6 mg) was 35.3 (25.17). For the same compound, the “mean CGI (clinician-rated) severity of illness and therapeutic effect scores compared with placebo” value ([2]; Night 85, both doxepin treatment groups (1 mg, 3 mg)) was “statistically significant improvements”, the “CGI (subject-rated) scale of therapeutic effect, all five parameters, compared with placebo” value ([2]; after 85 nights of treatment, both doxepin groups (1 mg, 3 mg)) was “statistically significant improvements” and the “LPS, Mean” value ([3]; 1 mg) was 28.3 min. For the same compound, the “NAASO, Mean” value ([3]; 1 mg) was 12.3, the “SE, Mean” value ([3]; 1 mg) was 78.5% and the “TST, Mean” value ([3]; 1 mg) was 376.8 min. For the same compound, the “WASO, Mean” value ([3]; 1 mg) was 80.5 min, the “WTAS, Mean” value ([3]; 1 mg) was 10.4 min and the “WTDS, Mean (primary efficacy variable)” value ([3]; 1 mg) was 70.1. The “WTDS, Mean (primary efficacy variable)” value ([3]; 1 mg, listed as doxepin) was 70.1 (32.78), the “LPS, Mean” value ([3]; 3 mg) was 23.7 min and the “NAASO, Mean” value ([3]; 3 mg) was 12.8. For the same compound, the “SE, Mean” value ([3]; 3 mg) was 81.0%, the “TST, Mean” value ([3]; 3 mg) was 388.8 min and the “WASO, Mean” value ([3]; 3 mg) was 72.3 min. The “WTAS, Mean” value ([3]; 3 mg) was 5.9 min, the “WTDS, Mean (primary efficacy variable)” value ([3]; 3 mg) was 66.4 and the “WTDS, Mean (primary efficacy variable)” value ([3]; 3 mg, listed as doxepin) was 66.4 (31.56). The “LPS, Mean” value ([3]; 6 mg) was 22.4 min, the “NAASO, Mean” value ([3]; 6 mg) was 12.5 and the “SE, Mean” value ([3]; 6 mg) was 82.8%. The “TST, Mean” value ([3]; 6 mg) was 397.4 min, the “WASO, Mean” value ([3]; 6 mg) was 65.2 min and the “WTAS, Mean” value ([3]; 6 mg) was 5.0 min. The “WTDS, Mean (primary efficacy variable)” value ([3]; 6 mg) was 60.2, the “WTDS, Mean (primary efficacy variable)” value ([3]; 6 mg, listed as doxepin) was 60.2 (28.00) and the “LSO, Mean” value ([4]; 1 mg) was 46.9 min. The “sTST, Mean” value ([4]; 1 mg) was 364.2 min, the “sWASO, Mean” value ([4]; 1 mg) was 56.1 min and the “LSO, Mean” value ([4]; 3 mg) was 46.1 min. The “sTST, Mean” value ([4]; 3 mg) was 379.7 min, the “sWASO, Mean” value ([4]; 3 mg) was 50.5 min and the “LSO, Mean” value ([4]; 6 mg) was 44.1 min. The “sTST, Mean” value ([4]; 6 mg) was 383.0 min and the “sWASO, Mean” value ([4]; 6 mg) was 42.1 min.
